Source: patent US6727232B2, “Nucleoside peptide antibiotics of AA-896” (Wyeth Holdings Corporation, priority 2001, dated 2004)
In brackets after ≈: the same amount, converted by molar mass. Read-outs that look alike come from different tables or passages of the source.

How the values were obtained:
Test in all cases: Broth dilution MIC
Type in all cases: cell-based
[1] = system: P. aeruginosa GC 4532; conditions: Pseudomonas aeruginosa, read-out: Antimicrobial Activity (MIC)
Experimental: (§1) The in vitro antibacterial activity of Example 1 through Example 20 is determined against a spectrum of Gram-positive and Gram-negative bacteria by a standard broth dilution method. Serial dilution of the compounds are made in Mueller-Hinton broth and inoculated with a bacterial suspension. The lowest concentration of compound that inhibited the growth of a bacterial strain after 18 hours of incubation at 35° C. is reported as the minimal inhibitory concentration (MIC) for that strain.

[2] = system: S. marcescens GC 4077; conditions: Serratia marcescens, read-out: Antimicrobial Activity (MIC)
Experimental: as §1

[3] = system: E. coli GC 2203; conditions: Escherichia coli, read-out: Antimicrobial Activity (MIC)
Experimental: as §1

[4] = system: S. aureus GC 1131; conditions: Staphylococcus aureus, read-out: Antimicrobial Activity (MIC)
Experimental: as §1

[5] = system: E. faecalis GC 2242; conditions: Enterococcus faecalis, read-out: Antimicrobial Activity (MIC)
Experimental: as §1

[6] = system: S. aureus GC 4536; conditions: Staphylococcus aureus, read-out: Antimicrobial Activity (MIC)
Experimental: as §1

[7] = system: E. faecalis GC 4555; conditions: Enterococcus faecalis, read-out: Antimicrobial Activity (MIC)
Experimental: as §1

[8] = system: CNS GC 4547; conditions: read-out: Antimicrobial Activity (MIC)
Experimental: as §1

[9] = system: P. aeruginosa GC 2214; conditions: Pseudomonas aeruginosa, read-out: Antimicrobial Activity (MIC)
Experimental: as §1

[10] = system: E. cloacae GC 3783; conditions: Enterobacter cloacae, read-out: Antimicrobial Activity (MIC)
Experimental: as §1

[11] = system: S. aureus GC 2216; conditions: Staphylococcus aureus, read-out: Antimicrobial Activity (MIC)
Experimental: as §1

[12] = system: E. faecalis GC 842; conditions: Enterococcus faecalis, read-out: Antimicrobial Activity (MIC)
Experimental: as §1

[13] = system: E. coli GC 3226; conditions: Escherichia coli, read-out: Antimicrobial Activity (MIC)
Experimental: as §1

[14] = system: E. coli GC 4560; conditions: Escherichia coli, GC4560, 18 h, read-out: Antimicrobial Activity (MIC)
Experimental: as §1

[15] = system: E. coli GC 4559; conditions: Escherichia coli, read-out: Antimicrobial Activity (MIC)
Experimental: as §1

[16] = system: CNS GC 4537; conditions: read-out: Antimicrobial Activity (MIC)
Experimental: as §1

[17] = system: CNS GC 4538; conditions: read-out: Antimicrobial Activity (MIC)
Experimental: as §1

[18] = system: P. rettgeri GC 4530; conditions: Providencia rettgeri, read-out: Antimicrobial Activity (MIC)
Experimental: as §1

[19] = system: M. morganii GC 4531; conditions: Morganella morganii, read-out: Antimicrobial Activity (MIC)
Experimental: as §1

[20] = system: K. pneumoniae GC 4534; conditions: Klebsiella pneumoniae, read-out: Antimicrobial Activity (MIC)
Experimental: as §1

CO[C@H]1C(O[C@H](C2C(=O)N(c3ccc(F)cc3)C(=O)N2CCCNC(=O)C(NC(=O)C(NC(=O)NC(C(=O)O)C(C)C)C2CCNC(=N)N2)C(O)C(C)C)[C@H]2O[C@@H](n3ccc(=O)[nH]c3=O)[C@H](O)[C@@H]2O)O[C@H](CN)[C@@H]1O (stereo partly drawn) [Example 1, 14-[5-((R)-{[(3R,4S,5R)-5-(Aminomethyl)-4-hydroxy-3-methoxytetrahydro-2-furanyl]oxy}{(2S,3S,4R,5R)-5-[2,4-dioxo-3,4-dihydro-1 (2H)-pyrimidinyl]-3,4-dihydroxytetrahydro-2-furanyl}methyl)-3-(4-fluorophenyl)-2,4-dioxo-1-imidazolidinyl]-9-(1-hydroxy-2-methylpropyl)-6-(2-iminohexahydro-4-pyrimidinyl)-2-isopropyl-4,7,10-trioxo-3,5,8,11-tetraazatetradecan-1-oic acid]
MIC ([1]; GC4532, 18 h): > 32 µg/mL | MIC ([2]; GC4077, 18 h): > 32 µg/mL | MIC ([3]; GC2203, 18 h): > 32 µg/mL | MIC ([4]; GC1131, 18 h): > 32 µg/mL | MIC ([5]; GC2242, 18 h): > 32 µg/mL | MIC ([6]; GC4536, 18 h): > 32 µg/mL | MIC ([7]; GC4555, 18 h): > 32 µg/mL | MIC ([8]; 18 h): > 32 µg/mL | MIC ([9]; GC2214, 18 h): > 32 µg/mL | MIC ([10]; GC3783, 18 h): > 32 µg/mL | MIC ([11]; GC2216, 18 h): > 32 µg/mL | MIC ([12]; GC842, 18 h): > 32 µg/mL | MIC ([13]; GC3226, 18 h): > 32 µg/mL | MIC [14]: 64 µg/mL (≈ 60.1 µM) | MIC ([15]; GC4559, 18 h): > 32 µg/mL | MIC ([16]; 18 h): > 32 µg/mL | MIC ([17]; 18 h): 32 µg/mL (≈ 30 µM) | MIC ([18]; GC4530, 18 h): > 32 µg/mL | MIC ([19]; GC4531, 18 h): > 32 µg/mL | MIC ([20]; GC4534, 18 h): > 32 µg/mL

CCCCCN1C(=O)C([C@@H](OC2O[C@H](CN)[C@H](O)[C@H]2OC)[C@H]2O[C@@H](n3ccc(=O)[nH]c3=O)[C@H](O)[C@@H]2O)N(CCCNC(=O)C(NC(=O)C(NC(=O)NC(C(=O)O)C(C)C)C2CCNC(=N)N2)C(O)C(C)C)C1=O (stereo partly drawn) [Example 2, 14-[5-((R)-{[(3R,4S,5R)-5-(Aminomethyl)-4-hydroxy-3-methoxytetrahydro-2furanyl]oxy}{(2S,3S,4R,5R)-5-[2,4-dioxo-3,4-dihydro-1 (2H)-pyrimidinyl]-3,4-dihydroxytetrahydro-2-furanyl}methyl)-2,4-dioxo-3-pentyl-1-imidazolidinyl]-9-(1-hydroxy-2-methylpropyl)-6-(2-iminohexahydro-4-pyrimidinyl)-2-isopropyl-4,7,10-trioxo-3,5,8,11-tetraazatetradecan-1-oic acid]
MIC ([1]; GC4532, P. aeruginosa GC 4532, Mueller-Hinton broth, 18 hours at 35° C.): > 32 µg/mL | MIC ([2]; GC4077, S. marcescens GC 4077, Mueller-Hinton broth, 18 hours at 35° C.): > 32 µg/mL | MIC ([3]; GC2203, E. coli GC 2203, Mueller-Hinton broth, 18 hours at 35° C.): > 32 µg/mL | MIC ([4]; GC1131, S. aureus GC 1131, Mueller-Hinton broth, 18 hours at 35° C.): > 32 µg/mL | MIC ([5]; GC2242, E. faecalis GC 2242, Mueller-Hinton broth, 18 hours at 35° C.): > 32 µg/mL | MIC ([6]; GC4536, S. aureus GC 4536, Mueller-Hinton broth, 18 hours at 35° C.): > 32 µg/mL | MIC ([7]; GC4555, E. faecalis GC 4555, Mueller-Hinton broth, 18 hours at 35° C.): > 32 µg/mL | MIC ([8]; CNS GC 4547, Mueller-Hinton broth, 18 hours at 35° C.): > 32 µg/mL | MIC ([9]; GC2214, P. aeruginosa GC 2214, Mueller-Hinton broth, 18 hours at 35° C.): > 32 µg/mL | MIC ([10]; GC3783, E. cloacae GC 3783, Mueller-Hinton broth, 18 hours at 35° C.): > 32 µg/mL | MIC ([11]; GC2216, S. aureus GC 2216, Mueller-Hinton broth, 18 hours at 35° C.): > 32 µg/mL | MIC ([12]; GC842, E. faecalis GC 842, Mueller-Hinton broth, 18 hours at 35° C.): > 32 µg/mL | MIC ([13]; GC3226, E. coli GC 3226, Mueller-Hinton broth, 18 hours at 35° C.): > 32 µg/mL | MIC [14]: 32 µg/mL (≈ 30.7 µM) | MIC ([15]; GC4559, E. coli GC 4559, Mueller-Hinton broth, 18 hours at 35° C.): > 32 µg/mL | MIC ([16]; CNS GC 4537, Mueller-Hinton broth, 18 hours at 35° C.): > 32 µg/mL | MIC ([17]; CNS GC 4538, Mueller-Hinton broth, 18 hours at 35° C.): > 32 µg/mL | MIC ([18]; GC4530, P. rettgeri GC 4530, Mueller-Hinton broth, 18 hours at 35° C.): > 32 µg/mL | MIC ([19]; GC4531, M. morganii GC 4531, Mueller-Hinton broth, 18 hours at 35° C.): > 32 µg/mL | MIC ([20]; GC4534, K. pneumoniae GC 4534, Mueller-Hinton broth, 18 hours at 35° C.): > 32 µg/mL
